Measurements: EP0748800A2, “Pyrimidinedione, pyrimidinetrione, triazinedione, tetrahydroquinazolinedione derivatives as alpha-1-adrenergic receptor antagonists” (priority 1995, dated 1996)

What was measured:
α1-adrenoceptor [1] = settings: relative to human isolated arterial smooth muscle; agonist norepinephrine
Text: (§3) The following describes in vitro assays for measuring the relative effect of test compounds on α1-adrenoceptor mediated contractions of human, isolated arterial and urinary bladder smooth muscle.
Human prostatic and bladder neck smooth muscle tissue was obtained following radical cystoprostatectomies or radical prostatectomies and immediately immersed in Krebs' solution. The prostatic and bladder tissue was dissected free from extraneous tissue and then strips of tissue 0.8 to 1.2 cm in length and 3 to 5 mm in width were cut and suspended vertically in 10 ml tissue baths and bathed in Kreb's solution maintained at 37°C and constantly aerated with a 95% O2 and 5% CO2 gas mixture. A resting tension of 0.75 to 1 g was applied to each muscle strip and thereafter periodically readjusted to maintain a 1 g resting tension throughout the duration of the assay. […]
(§4) The tissue was then exposed to solution free of norepinephrine, replacing the solution twice every 5 minutes for 30 minutes. After baseline tension was established and readjusted to 1 g, the tissue was exposed to bath solution containing the test compound, replacing the solution every 15 minutes for 60 minutes. […]
(§5) The concentration ratio (CR) of norepinephrine necessary to produce equiactive responses in the absence and presence of the test compound was determined. […]

anesthetized dog [2] = assay: Dog in vivo intraurethral pressure assay (hypogastric nerve stimulation); settings: i.v., increasing doses, relative to DAP
Experimental: (§1) The following describes an in vivo assay for measuring the relative effect of test compounds on hypogastric nerve stimulation-induced increases in intraurethral pressure and phenylephrine-induced increases in diastolic blood pressure in anesthetized dog.
(§2) Mongrel dogs (10 to 20 kg) were fasted for 12 to 18 hours and anesthetized with pentobarbital sodium (35 mg/kg, i.v.). An endotracheal tube was inserted and thereafter the lungs were mechanically ventilated with room air. The right femoral vein was isolated and cannulated with two polyethylene cannulae, one for the administration of a continuous infusion of pentobarbital sodium (5 to 10 mg/kg/hr) and the other for bolus administration of test substances. The right femoral artery was isolated and cannulated to the abdominal aorta with a fluid filled polyethylene cannula connected to an external pressure transducer for monitoring diastolic aortic pressure (DAP). The bladder was exposed via a ventral midline abdominal incision and emptied of urine through a 22 gauge needle. The bladder was cannulated through a stab incision with a water filled balloon catheter connected to an external pressure transducer for monitoring prostatic intraurethral pressure (IUP). The right hypogastric nerve (HGN) was carefully isolated and attached to a Dastre's electrode for nerve stimulation. […]

α1-adrenoceptor [3] = settings: relative to human prostatic/bladder neck smooth muscle; agonist norepinephrine
Experimental: as §3
Human arterial blood vessels were obtained post-mortem and immediately immersed in cold physiological saline solution. Within 24 hours of removal the isolated arterial tissue was placed in Krebs' solution (comprising in mM concentrations: NaCl, 118.5; NaHCO3, 25; dextrose, 5; KCl, 4.8; CaCl2, 2.5; MgSO4, 1.2; KH2PO4, 1.2; cocaine, 0.03; corticosterone, 0.03; propranolol, 0.001; ascorbic acid, 0.1; and indomethacin, 0.01). The arteries were dissected free from extraneous tissue and then cut into cross sectional rings approximately 3 mm in length. […] A resting tension of 1 to 1.5 g was applied to each ring and thereafter periodically readjusted to maintain a 1 g resting tension throughout the duration of the assay. […]
as §4, §5

anesthetized dog [4] = settings: in vivo, iv
Experimental: as §1, §2

α1-adrenoceptor [5] = settings: relative to rabbit isolated urinary bladder smooth muscle; agonist norepinephrine
Text: The following describes in vitro assays for measuring the relative effect of test compounds on α1-adrenoceptor mediated contraction of rat, isolated aortic smooth muscle and rabbit, isolated urinary bladder smooth muscle.
Thoracic aorta were isolated from rats and immediately immersed in Krebs' solution (comprising in mM concentrations: NaCl, 118.5; NaHCO3, 25; dextrose, 5; KCl, 4.8; CaCl2, 2.5; MgSO4, 1.2; KH2PO4, 1.2; cocaine, 0.03; corticosterone, 0.03; propranolol, 0.001; ascorbic acid, 0.1; and indomethacin, 0.01). The aortas were dissected free from extraneous tissue and then a cross sectional ring approximately 3 mm in length was cut from the most proximal segment. […] A resting tension of 1 g was applied to each aortic ring and thereafter periodically readjusted to maintain a 1 g resting tension throughout the duration of the assay. […]
The tissue was then exposed to solution free of agonist, replacing the solution twice every 5 minutes for 30 minutes. After baseline tension was established and readjusted to 1 g, the tissue was exposed to bath solution containing the test compound, replacing the solution every 15 minutes for 60 minutes. […]
The concentration ratio (CR) of agonist necessary to produce equiactive responses in the absence and presence of the test compound was determined. […]

## COc1cc2nc(N3CCN(C(=O)c4ccco4)CC3)nc(N)c2cc1OC [prazosin]
α1-adrenoceptor [1]
  inhibition of α1-adrenoceptor mediated contractions of human, isolated prostatic and bladder neck smooth muscle: non-selectively inhibited
Anesthetized dog [2]
  inhibition of HGN stimulation-induced increases in IUP: inhibited increases in IUP and DAP in a similar fashion
α1-adrenoceptor [3]
  inhibition of α1-adrenoceptor mediated contractions of human, isolated arterial smooth muscle: non-selectively inhibited
Anesthetized dog [4]
  inhibition of phenylephrine-induced increases in DAP: inhibited increases in IUP and DAP in a similar fashion
α1-adrenoceptor [5]
  inhibition of α1-adrenoceptor mediated contractions of rat, isolated aortic smooth muscle: selectively inhibited
